Assay results taken from PMC11275795 (bioRxiv, 2024).

Target: FIGNL1∆N (Homo sapiens, UniProt Q6PIW4)
Settings: activity enhanced by RAD51 or its N-terminal peptide

FIGNL1∆N, sequence (Q6PIW4 287-674): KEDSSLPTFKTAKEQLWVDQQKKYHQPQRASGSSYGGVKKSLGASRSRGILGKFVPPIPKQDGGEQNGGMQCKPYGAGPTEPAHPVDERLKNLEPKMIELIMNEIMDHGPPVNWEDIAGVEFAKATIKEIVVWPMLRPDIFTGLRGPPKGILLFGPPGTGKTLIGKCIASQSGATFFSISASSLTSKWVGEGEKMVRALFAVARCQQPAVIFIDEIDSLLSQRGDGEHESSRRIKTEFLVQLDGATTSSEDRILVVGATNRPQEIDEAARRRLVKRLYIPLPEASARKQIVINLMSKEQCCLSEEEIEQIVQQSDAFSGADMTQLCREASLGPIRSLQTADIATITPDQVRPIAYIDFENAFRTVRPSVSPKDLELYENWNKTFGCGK

Structure (SMILES): Nc1ncnc2c1ncn2[C@@H]1O[C@H](COP(=O)(O)OP(=O)(O)OP(=O)(O)O)[C@@H](O)[C@H]1O [ATP]
- ATPase assay: The ATPase activity of FIGNL1∆N is enhanced in the presence of RAD51
